# Test results: patent publication US7238697B2, “Pyridylpyrimidines for use as pesticides” (Bayer CropScience AG, priority 2001, dated 2007)
# Test: log P determination by HPLC (reversed-phase C18), EEC Directive 79/831 Annex V.A8
# Type: physicochemical
# Conditions: pH 2.3; HPLC, reversed-phase C 18, 43° C., 0.1% aqueous phosphoric acid/acetonitrile; read-out: log P (pH 2.3)
# Method: The stated log P values were determined in accordance with EEC Directive 79/831 Annex V.A8 by HPLC (High Performance Liquid Chromatography) using a reversed-phase column, (C 18). Temperature: 43° C. Mobile phases for the determination in the acidic range: 0.1% aqueous phosphoric acid, acetonitrile; linear gradient from 10% acetonitrile to 90% acetonitrile. Calibration was carried out using unbranched alkan-2-ones (having 3 to 16 carbon atoms) with known logP values (determination of the logP values by the retention times using linear interpolation between two successive alkanones).
row,Structure (SMILES),chromatographic logP
1,O=C(CSc1nccc(-c2ccccn2)n1)OCC(F)(F)C(F)(F)C(F)(F)F [Example 119],3.37

# Same assay, conditions: reversed-phase C18 HPLC column; pH 2.3; HPLC, reversed-phase C 18, 43° C., 0.1% aqueous phosphoric acid/acetonitrile; read-out: log P (pH 2.3)
row,Structure (SMILES),chromatographic logP
1,N#CCCCCOC(=O)CSc1nccc(-c2ccccn2)n1 [Example 95],2.29
2,CC(C)=CCOC(=O)CSc1nccc(-c2ccccn2)n1 [Example 96],3.18
3,CCOCCOC(=O)CSc1nccc(-c2ccccn2)n1 [Example 98],2.34
4,O=C(CSc1nccc(-c2ccccn2)n1)OCCN1CCCCC1 [Example 99],1.04
5,CCCCOC(=O)CSc1nccc(-c2ccccn2)n1 [Example 100],3.07
6,COC(=O)CSc1nc(-c2ccccn2)cc(-c2ccccn2)n1 [Example 101],2.81
7,CCOC(=O)CSc1nccc(-c2cc(C)ccn2)n1 [Example 102],2.2
8,COC(=O)CSc1nccc(-c2cc(C)ccn2)n1 [Example 103],1.8
9,CCOC(=O)CSc1nccc(-c2cccc(OCC)n2)n1 [Example 104],3.67
10,CCOC(=O)CSc1nccc(-c2cccc(C)n2)n1 [Example 105],2.46
11,COC(=O)CSc1nc(-c2ccccn2)cc(-c2ccco2)n1 [Example 106],3.01
12,COC(=O)CSc1nc(-c2ccc(OC)cc2)cc(-c2ccccn2)n1 [Example 107],3.5
13,COC(=O)C[S+]([O-])c1nccc(-c2ccccn2)n1 (centres unmarked) [Example 108],0.89
14,COC(=O)CSc1nc(-c2ccccc2)cc(-c2ccccn2)n1 [Example 109],3.57
15,O=C(CSc1nccc(-c2ccccn2)n1)OCCCN1CCCCC1 [Example 110],1.13
16,CCOC(=O)CSc1nccc(-c2cccc(Cl)n2)n1 [Example 111],3.19
17,COC(=O)CSc1nc(-c2ccccn2)cc(C(C)C)n1 [Example 112],3.11
18,CCOC(=O)C(F)Sc1nccc(-c2ccccn2)n1 (centres unmarked) [Example 113],2.55
19,COC(=O)CSc1nc(-c2ccccn2)cc(C(F)(F)F)n1 [Example 114],3.34
20,CCOC(=S)CSc1nccc(-c2ccccn2)n1 [Example 115],3.3
21,O=C(CSc1nccc(-c2ccccn2)n1)OCC(F)F [Example 116],2.25
22,O=C(CSc1nccc(-c2ccccn2)n1)OCC(F)(F)F [Example 117],2.69

row,Structure (SMILES),chromatographic logP
1,O=C(CSc1nccc(-c2ccccn2)n1)OCC(F)(F)C(F)(F)F [Example 118],3.24
2,O=C(CSc1nccc(-c2ccccn2)n1)OC(C(F)(F)F)C(F)(F)F [Example 120],3.59
3,CC(OC(=O)CSc1nccc(-c2ccccn2)n1)C(F)(F)F (centres unmarked) [Example 121],3.06
4,O=C(CSc1nccc(-c2ccccn2)n1)OCCC(F)(F)F [Example 122],2.26
5,O=C(CSc1nccc(-c2ccccn2)n1)OCC(Cl)Cl [Example 123],2.78
6,O=C(CSc1nccc(-c2ccccn2)n1)OCc1ccc(Cl)nc1 [Example 124],2.31
7,O=C(CSc1nccc(-c2ccccn2)n1)OCC(Cl)(Cl)Cl [Example 125],3.31
8,O=C(CSc1nccc(-c2ccccn2)n1)OCCCl [Example 126],2.29
9,O=C(CSc1nccc(-c2ccccn2)n1)OC1COCOC1 [Example 127],1.76
10,CCOC(=O)CSc1nccc(-c2ccc(C)cn2)n1 [Example 128],2.5
11,CC(C)(C)C(=O)OCCNC(=O)NCCCOC(=O)CSc1nccc(-c2ccccn2)n1 [Example 129],2.51
12,CC(C)(C)c1ccc(NC(=O)NCCCOC(=O)CSc2nccc(-c3ccccn3)n2)cc1 [Example 130],3.51
13,CC(C)COC(=O)c1cccc(NC(=O)NCCCOC(=O)CSc2nccc(-c3ccccn3)n2)c1 [Example 131],3.45
14,O=C(NCCCOC(=O)CSc1nccc(-c2ccccn2)n1)Nc1cccc2c1CCCC2 [Example 133],3.06
15,NNC(=O)CSc1nccc(-c2ccccn2)n1 [Example 134],0.43
16,O=C(CSc1nccc(-c2ccccn2)n1)N/N=C/c1ccc([N+](=O)[O-])cc1 [Example 135],2.23
17,CC(C)=NNC(=O)CSc1nccc(-c2ccccn2)n1 [Example 136],0.44
18,O=C(CSc1nccc(-c2ccccn2)n1)NCc1cc(C(F)(F)F)cc(C(F)(F)F)c1 [Example 137],3.22
19,O=C(CSc1nccc(-c2ccccn2)n1)NCc1ccccc1SC(F)(F)F [Example 138],2.92
20,O=C(NCCCOC(=O)CSc1nccc(-c2ccccn2)n1)Nc1ccc(Cl)cc1Cl [Example 139],3.2
21,CS(=O)(=O)NC(=O)CSc1nccc(-c2ccccn2)n1 [Example 140],1.13
22,CC(C)(C)OC(=O)NCCOC(=O)CSc1nccc(-c2ccccn2)n1 [Example 141],2.63

row,Structure (SMILES),chromatographic logP
1,CC(C)(C)OC(=O)NCCCOC(=O)CSc1nccc(-c2ccccn2)n1 [Example 142],2.79
2,N#Cc1ccc(NC(=O)NCCOC(=O)CSc2nccc(-c3ccccn3)n2)cc1 [Example 146],2.3
3,O=C(NCCOC(=O)CSc1nccc(-c2ccccn2)n1)Nc1ccc(C(F)(F)F)cc1 [Example 147],3.04
4,CC(C)(C)c1ccc(NC(=O)NCCOC(=O)CSc2nccc(-c3ccccn3)n2)cc1 [Example 148],3.35
5,CC(C)COC(=O)c1cccc(NC(=O)NCCOC(=O)CSc2nccc(-c3ccccn3)n2)c1 [Example 149],3.01
6,CCOC(=O)c1cc(NC(=O)NCCOC(=O)CSc2nccc(-c3ccccn3)n2)ccc1Cl [Example 150],4.95
7,O=C(NCCOC(=O)CSc1nccc(-c2ccccn2)n1)Nc1cccc2c1CCCC2 [Example 151],2.94
8,N#Cc1ccc(NC(=O)NCCCOC(=O)CSc2nccc(-c3ccccn3)n2)cc1 [Example 152],2.45
9,O=C(NCCCOC(=O)CSc1nccc(-c2ccccn2)n1)Nc1ccc(C(F)(F)F)cc1 [Example 153],3.2
10,O=C(CSc1nccc(-c2ccccn2)n1)OCC1CCCC1 [Example 154],3.6
11,CC1(COC(=O)CSc2nccc(-c3ccccn3)n2)COC1 [Example 158],1.98
12,O=C(CSc1nccc(-c2ccccn2)n1)OCC1CCCCC1 [Example 159],4
13,O=C(CSc1nccc(-c2ccccn2)n1)OCCN1CCNC1=S [Example 160],1.59
14,CC(CN1CCOCC1)OC(=O)CSc1nccc(-c2ccccn2)n1 (centres unmarked) [Example 161],1.16
15,NC(=O)COC(=O)CSc1nccc(-c2ccccn2)n1 [Example 163],1.11
16,COC(COC(=O)CSc1nccc(-c2ccccn2)n1)OC [Example 164],2.05
17,O=C(CSc1nccc(-c2ccccn2)n1)OCCCN1CCCC1=O [Example 165],1.64
18,C=CC(C)(C)COC(=O)CSc1nccc(-c2ccccn2)n1 [Example 168],3.48
19,CCNC(=S)NCCOC(=O)CSc1nccc(-c2ccccn2)n1 [Example 172],1.79
20,O=C(CSc1nccc(-c2ccccn2)n1)OC1CS(=O)(=O)C1 [Example 173],1.67
